This is an account of results in PubChem BioAssay (NCI).

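96-well plates; 48 h exposure; 5 concentrations. Endpoints by linear interpolation between flanking doses. Not reached: highest tested concentration assigned. TGI denotes the concentration required for complete inhibition of growth.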

Some test systems named below: SK-MEL-5 melanoma; RPMI-8226 leukemia; MDA-MB-435; HS 578T breast; SK-OV-3 ovarian; NCI-H226 lung; KM12 colon; SN12C renal; SF-268 CNS; 786-0 renal.
Common to all, as to assay: growth of human tumour cells (NCI), 48 h

For `COc1ccc2c(c1)c(=O)c1c(NCCCN(C)CCCNc3ccc4c(=O)n(CCN(C)C)c(=O)n5c6ccc(OC)cc6c(=O)c3c45)ccc3c(=O)n(CCN(C)C)c(=O)n2c31`, the TGI in the experiment with SK-MEL-5 melanoma is 0.813 µM; with RPMI-8226 leukemia, 0.176 µM; in the experiment on MDA-MB-435 it was 0.756 µM; in the experiment on HS 578T breast, 1.73 µM; in the experiment on SK-OV-3 ovarian, 4.98 µM; in the experiment with NCI-H226 lung, 0.409 µM. Also, the TGI came to 1.11 µM with KM12 colon, 1.43 µM in the experiment with SN12C renal, 1.88 µM in the experiment with SF-268 CNS and 1.48 µM in the experiment with 786-0 renal.
Take `CCN(CC)c1ccc(/C=c2\nc(-c3ccccc3)n3c2nc2ccccc23)cc1`: the TGI is 21.9 µM in the experiment with SK-MEL-5 melanoma; 6.3 µM in the experiment on RPMI-8226 leukemia; 48.8 µM in the experiment on MDA-MB-435; more than 100 µM with HS 578T breast; more than 100 µM in the experiment on SK-OV-3 ovarian; 60.5 µM with NCI-H226 lung. The TGI in the experiment on KM12 colon, with SN12C renal, in the experiment with SF-268 CNS and in the experiment with 786-0 renal was more than 100 µM throughout.
In the case of `CC1(CCc2ccccc2)CC1(Br)Br` (stereo not given), the TGI is 30.1 µM in the experiment on SK-MEL-5 melanoma; 44.8 µM in the experiment with RPMI-8226 leukemia; 60.1 µM with MDA-MB-435; more than 100 µM in the experiment on HS 578T breast; more than 100 µM in the experiment on SK-OV-3 ovarian; 77.1 µM in the experiment on NCI-H226 lung. Further, the TGI in the experiment on KM12 colon was more than 100 µM; in the experiment on SN12C renal it was 38.1 µM; in the experiment with SF-268 CNS, more than 100 µM; with 786-0 renal, 57.5 µM.
`COC(=O)c1ccc(CCC2=CC(=O)C(Br)=CC2=O)cc1`: the TGI in the experiment with SK-MEL-5 melanoma came to 24.6 µM; in the experiment with RPMI-8226 leukemia, 49.3 µM; in the experiment on MDA-MB-435, 31.2 µM; with HS 578T breast, 45 µM; in the experiment on SK-OV-3 ovarian it was 38 µM; in the experiment with NCI-H226 lung, 30.5 µM. Also, the TGI with KM12 colon came out at 32.3 µM; in the experiment on SN12C renal it was 32.5 µM; in the experiment with SF-268 CNS, 43 µM; in the experiment on 786-0 renal, 35.2 µM.
Turning to `Cc1c(C#N)c2nnn(-c3ccc([N+](=O)[O-])cc3)c(=O)n2c1-c1ccccc1`, the TGI was 25.2 µM in the experiment with SK-MEL-5 melanoma; more than 100 µM in the experiment with RPMI-8226 leukemia; 42.9 µM in the experiment on MDA-MB-435; more than 100 µM in the experiment with HS 578T breast; 79.4 µM in the experiment on SK-OV-3 ovarian; 26.9 µM in the experiment on NCI-H226 lung. The TGI in the experiment on KM12 colon came to 20.5 µM; in the experiment with SN12C renal, 24.9 µM; with SF-268 CNS it was 32.4 µM; in the experiment with 786-0 renal, 26.6 µM.
Regarding `COc1cc(CCNC2=CC(=O)c3cccnc3C2=O)ccc1O`, the TGI is 1.08 µM in the experiment on SK-MEL-5 melanoma; 5.2 µM with RPMI-8226 leukemia; 0.317 µM with MDA-MB-435; 3.56 µM in the experiment on HS 578T breast; 11.1 µM with SK-OV-3 ovarian; 3.53 µM in the experiment on NCI-H226 lung. For the same compound, the TGI is 13.2 µM with KM12 colon, 2.43 µM in the experiment with SN12C renal, 7.7 µM in the experiment on SF-268 CNS and 3.67 µM in the experiment on 786-0 renal.
`c1nncn1C12C3C4C5C3C1C5C42` (stereo not given): the TGI with SK-MEL-5 melanoma, with RPMI-8226 leukemia, in the experiment on MDA-MB-435, with HS 578T breast, in the experiment with SK-OV-3 ovarian and in the experiment with NCI-H226 lung was more than 100 µM throughout. The TGI in the experiment with KM12 colon, with SN12C renal, in the experiment with SF-268 CNS and with 786-0 renal was more than 100 µM in each case.
Turning to `O=C(CCCC1Cc2ccccc2C1=O)c1ccccc1` (stereo not given), the TGI in the experiment with SK-MEL-5 melanoma, with RPMI-8226 leukemia, in the experiment with MDA-MB-435, with HS 578T breast, with SK-OV-3 ovarian and in the experiment on NCI-H226 lung was more than 100 µM throughout. Further, the TGI with KM12 colon, with SN12C renal, in the experiment on SF-268 CNS and in the experiment on 786-0 renal was more than 100 µM in each case.
Turning to `NC(Cc1ccccc1)=NCC(=O)O`, the TGI in the experiment with SK-MEL-5 melanoma, in the experiment with RPMI-8226 leukemia, in the experiment with MDA-MB-435, in the experiment on HS 578T breast, in the experiment on SK-OV-3 ovarian and in the experiment with NCI-H226 lung was more than 100 µM throughout. Also, the TGI in the experiment with KM12 colon, with SN12C renal, in the experiment on SF-268 CNS and in the experiment with 786-0 renal was more than 100 µM throughout.
`COC(=O)C1=COC(C)C2C[n+]3ccc4c([nH]c5ccccc54)c3CC12` (stereo not given): the TGI in the experiment with SK-MEL-5 melanoma, in the experiment with RPMI-8226 leukemia, in the experiment on MDA-MB-435, with HS 578T breast, in the experiment on SK-OV-3 ovarian and with NCI-H226 lung was more than 100 µM in each case. Moreover, the TGI in the experiment with KM12 colon, with SN12C renal, in the experiment with SF-268 CNS and in the experiment on 786-0 renal was more than 100 µM in each case.
In the case of `N#Cc1ccc(OC(=O)c2ccc(N=C(N)N)cc2)cc1`, the TGI with SK-MEL-5 melanoma, in the experiment on RPMI-8226 leukemia, with MDA-MB-435, in the experiment with HS 578T breast, with SK-OV-3 ovarian and with NCI-H226 lung was more than 100 µM in each case. Further, the TGI in the experiment on KM12 colon, in the experiment on SN12C renal, in the experiment on SF-268 CNS and in the experiment with 786-0 renal was more than 100 µM each time.
On to `CCOC(=O)c1[nH]cnc1/N=N/N(C)N`, for which the TGI in the experiment on SK-MEL-5 melanoma, with RPMI-8226 leukemia, in the experiment on MDA-MB-435, with HS 578T breast, in the experiment with SK-OV-3 ovarian and in the experiment on NCI-H226 lung was more than 100 µM in each case. The TGI in the experiment on KM12 colon is 14 µM; with SN12C renal, more than 100 µM; with SF-268 CNS, more than 100 µM; in the experiment on 786-0 renal, more than 100 µM.
Consider `CC(=O)OC(CC(C)C)P1(=O)N(CC(C)(C)C)[C@@H]2CCCC[C@H]2N1CC(C)(C)C` (stereo not given in full), for which the TGI in the experiment on SK-MEL-5 melanoma came out at 21.9 µM; in the experiment with RPMI-8226 leukemia, 15.3 µM; in the experiment on MDA-MB-435, 25.3 µM; in the experiment with HS 578T breast it was 25.3 µM; in the experiment with SK-OV-3 ovarian, 30.7 µM; in the experiment with NCI-H226 lung, 23.2 µM. The TGI in the experiment with KM12 colon was determined as 24.1 µM; with SN12C renal, 24.4 µM; in the experiment with SF-268 CNS it was 29.3 µM; in the experiment on 786-0 renal it was 23.9 µM.
